Experimental data from US6436344B1, “Method of inactivating pathogens” (American National Red Cross, priority 1999, dated 2002).
“And” between values parts separate entries of the source, which are not always exact repeats. Equal entries are not always repeated. Where two headings read alike, the source gives them in different places.

What was measured:
[1] = tested on: porcine parvovirus (PPV); test: Porcine parvovirus inactivation by CAA, TCID50 titration on PK-13 cells (Example 3); type: cell-based, PPV strain NADL-2
Description: An aqueous solution of chloroacetaldehyde (Aldrich Chemical, Milwaukee, Wis., Product 31,727-6, Lot KS02106MR, 50% in water) was diluted to the desired mM concentrations (0.5, 1, 2 and 5 mM) in 0.05 M sodium acetate buffer, pH 5.5. The 2 mM and 5 mM CAA samples were also prepared in 2.5% IgG solution, buffered at pH 5.5 with sodium acetate. Positive hold controls contained 0.05 M sodium acetate buffer, pH 5.5, or acetate-buffered 2.5% IgG without CAA. Positive controls and test samples were spiked 1:40 with porcine parvovirus (ATCC VR-742, PPV strain NADL-2). Aliquots were removed for immediate viral assay and the remaining samples were incubated at 37° C. for 4, 7 and 22.5 hours and then assayed to determine viral titers.
(§1) Viral assays were performed by the TCID50 method as described by Miekka et al, HEMOPHILIA 4, 401-408 (1998). Target porcine kidney cells, PK-13 (ATCC CRC-6490), were seeded into 96-well microtiter plates and grown to 50-70% confluence. Five-fold serial dilutions (200 μL) of samples were prepared in cell culture medium and added to four wells each. Plates were incubated for 7 days at 37° C. in humidified 5% carbon dioxide. Cell layers were analyzed for cytopathic effect, and log10 viral titers were calculated by the method of Kärber, ARCH. Exp. PATHOL. PHARMAKOL., 162, 480-483 (1931). The average PPV reduction rate (log10/hour) was computed by regression analysis of the viral titers at each of the time points tested. Viral titers that had decreased to the assay limit were excluded from this calculation.

[2] = tested on: pseudorabies virus (PRV); type: cell-based; conditions: for Pseudorabies Virus Av. rate / Pseudorabies Virus Reduction Factor: pH 5.5, 4 hours at 37° C.
[3] = target: T1, human coagulation Factor VIII (Homo sapiens, UniProt P00451); test: Preservation of Factor VIII clotting activity, one-stage APTT (Example 5); type: biochemical; conditions: for FVIII u/mL after 37° C. incubation, 3 hours: 3 hours at 37° C.
T1 construct: The CFVIII product tested was ‘Antihemophilic Factor, Human, Method M, Solvent and Detergent Treated’ (American Red Cross); tissue American Red Cross; host or cells: human plasma (own knowledge: Method M is a plasma-derived, monoclonal-antibody-purified concentrate)

[4] = tested on: porcine parvovirus (PPV); test: Inactivation of PPV by CAA in the presence of Factor VIII (Example 6); type: cell-based
Description: as §1
A stock solution of 100 mM CAA in water was neutralized to pH 7.0 and was added to CFVIII to give final CAA concentrations of 3 mM and 6 mM and final CFVIII concentration of 100 clotting units/mL. All samples were buffered at pH 5.5 with 0.02 M sodium acetate. PPV was spiked into the samples at 1:40 ratio. The samples were incubated for 4 hours at 37° C. The positive hold controls were acetate buffer or Factor VIII, spiked with PPV and incubated 4 hours at 37° C. Viral assays and cell culture techniques were performed as described in EXAMPLE 3. Viral reduction factors were calculated as the difference between the log10 titers of the non-incubated and 4-hour incubated samples.

[5] = target: T2, human coagulation Factor IX (Homo sapiens, UniProt P00740); test: Preservation of Factor IX clotting activity, one-stage APTT (Example 7); type: biochemical; conditions: 0.01 M calcium chloride, pH 6.2
T2 construct: highly-purified human coagulation Factor IX, a labile plasma clotting factor; from tissue

[6] = tested on: porcine parvovirus (PPV); test: Porcine parvovirus inactivation by IAA, TCID50 titration on PK 15 cells (Example 2); type: cell-based, strain PPV 893/76; conditions: for PPV Reduction Factor: 4 hours
Description: RPC-purified IAA was diluted to the desired μM concentrations in water or in 5% IgG solution (>98% pure, KABI, Stockholm, Sweden), and the pH was adjusted to 5.00 with 0.4 M sodium phosphate. […] The samples were then gel filtered through sterile PD 10 columns containing Sephadex G-25 (Amersham Pharmacia Biotech Uppsala, Sweden) equilibrated with 25 ml of cell culture medium. A sample (2 ml) was layered onto the column and the fall-through was discarded. Then 3.2 ml cell culture medium (3.2 ml) was added to the column and the first 0.5 mL of eluate was discarded. The remaining eluate was collected for viral assay. The resulting diluting factor was 1.48. Materials for viral assays were as follows. […] The cell supernatant was clarified by low speed centrifugation and filtered through 0.45 μm and 0.2 μm filters before storing at -70° C. in aliquots. The target cells for titration of PPV were porcine kidney cell line PK 15 (ATCC CCL-33). The cells were cultivated according to conventional cell culture procedures in EMEM with non-essential amino acids (SVA, Uppsala, Sweden), supplemented with 120 μg/ml of penicillin G, 100 μg/ml of streptomycin sulfate and 5% fetal calf serum. Cells were seeded in 96 well microtiter plates (Nunc). Viral assays were performed by a TCID50 method. The original virus stock (positive control sample) and the test samples were serially diluted ten-fold in cell culture medium shortly after sampling. Aliquots (50 μl) of each dilution were added to eight wells of the 96-well microtiter plates. […] After incubation for 7 days at 37° C. in a humidified atmosphere of 5% CO2, the cells were rinsed in physiological saline and fixed in 80% acetone for 30 minutes at -20° C., after which the fixation fluid was removed and the plates were dried at 37° C. Virus infected cells were visualized by an immunoperoxidase method (Jensen […]. 22 (1981) 85-98; […]., RECENT ADVANCES IN VIRUS DIAGNOSTICS, McNutly and […]. (1984) 37-46; Saunders G. C., Am. J. VET. RES. 38 (1977) 21-25). […] The cells were then washed twice for five minutes with wash fluid and once with physiological saline. Peroxidase-conjugated rabbit anti-mouse IgG P 2060 (Dakopatts, Denmark) was added to the cells. […] Wells with viral foci were counted using an inverted microscope and the tissue culture infectious dose giving a 50% end point (TCID50) was calculated for each sample. […] 10^R=(V'×10^a')/(V''×10^a'')

[7] = Effect of pH 12, heat and thiosulfate on iodoacetaldehyde, GC-MS and NMR (Example 8); type: physicochemical
[8] = Relative amount of IAA and its hydrated form in water by NMR (Example 1C); type: physicochemical; conditions: water solution, NMR estimate, 40° C.
Description: One-dimensional ^1H-NMR spectra were recorded on a Bruker DRX 500 spectrometer at 40° C. The signal for TSP was used as internal reference (δH=0.0 ppm). A sample was prepared by adding 50 μl of the solution purified by reverse phase chromatography (RPC) to 650 μl D2O and subsequently transferring the diluted sample to a 5 mm NMR tube. For the quantitative measurement, a solution of Sodium Trimethyl Silyl Propionic acid (TSP, 0.991 mg/ml) was prepared; and 10 μl of that solution was added to the sample. By comparing the integral of the methyl groups in TSP with the integral of the CH2-group in hydrated IAA, an estimate of the IAA concentration in the sample could be made. Iodoacetaldehyde is in equilibrium with its hydrated form in a water solution. An estimate based on NMR is that the hydrated form accounts for approximately 90% of the sample, and the aldehyde form approximately 10%. This equilibrium should be taken into account when calculating concentration of IAA in aqueous media.

[9] = target: T2, human coagulation Factor IX; conditions: treatment with molecular iodine; cited from earlier work
[10] = 5 mM CAA, incubation for 4 hours
[11] = CAA 3 mM, Factor VIII (AHF-M) 100 clotting units/mL, pH 5.5, 4 hours at 37° C.
[12] = CAA 3 mM, buffer pH 5.5, 4 hours at 37° C.
[13] = CAA 6 mM, Factor VIII (AHF-M) 100 clotting units/mL, pH 5.5, 4 hours at 37° C.
[14] = CAA 6 mM, buffer pH 5.5, 4 hours at 37° C.
[15] = CAA 3 and 6 mM, with and without Factor VIII, 4 hours

T1 sequence (P00451 20-1667 limits assumed): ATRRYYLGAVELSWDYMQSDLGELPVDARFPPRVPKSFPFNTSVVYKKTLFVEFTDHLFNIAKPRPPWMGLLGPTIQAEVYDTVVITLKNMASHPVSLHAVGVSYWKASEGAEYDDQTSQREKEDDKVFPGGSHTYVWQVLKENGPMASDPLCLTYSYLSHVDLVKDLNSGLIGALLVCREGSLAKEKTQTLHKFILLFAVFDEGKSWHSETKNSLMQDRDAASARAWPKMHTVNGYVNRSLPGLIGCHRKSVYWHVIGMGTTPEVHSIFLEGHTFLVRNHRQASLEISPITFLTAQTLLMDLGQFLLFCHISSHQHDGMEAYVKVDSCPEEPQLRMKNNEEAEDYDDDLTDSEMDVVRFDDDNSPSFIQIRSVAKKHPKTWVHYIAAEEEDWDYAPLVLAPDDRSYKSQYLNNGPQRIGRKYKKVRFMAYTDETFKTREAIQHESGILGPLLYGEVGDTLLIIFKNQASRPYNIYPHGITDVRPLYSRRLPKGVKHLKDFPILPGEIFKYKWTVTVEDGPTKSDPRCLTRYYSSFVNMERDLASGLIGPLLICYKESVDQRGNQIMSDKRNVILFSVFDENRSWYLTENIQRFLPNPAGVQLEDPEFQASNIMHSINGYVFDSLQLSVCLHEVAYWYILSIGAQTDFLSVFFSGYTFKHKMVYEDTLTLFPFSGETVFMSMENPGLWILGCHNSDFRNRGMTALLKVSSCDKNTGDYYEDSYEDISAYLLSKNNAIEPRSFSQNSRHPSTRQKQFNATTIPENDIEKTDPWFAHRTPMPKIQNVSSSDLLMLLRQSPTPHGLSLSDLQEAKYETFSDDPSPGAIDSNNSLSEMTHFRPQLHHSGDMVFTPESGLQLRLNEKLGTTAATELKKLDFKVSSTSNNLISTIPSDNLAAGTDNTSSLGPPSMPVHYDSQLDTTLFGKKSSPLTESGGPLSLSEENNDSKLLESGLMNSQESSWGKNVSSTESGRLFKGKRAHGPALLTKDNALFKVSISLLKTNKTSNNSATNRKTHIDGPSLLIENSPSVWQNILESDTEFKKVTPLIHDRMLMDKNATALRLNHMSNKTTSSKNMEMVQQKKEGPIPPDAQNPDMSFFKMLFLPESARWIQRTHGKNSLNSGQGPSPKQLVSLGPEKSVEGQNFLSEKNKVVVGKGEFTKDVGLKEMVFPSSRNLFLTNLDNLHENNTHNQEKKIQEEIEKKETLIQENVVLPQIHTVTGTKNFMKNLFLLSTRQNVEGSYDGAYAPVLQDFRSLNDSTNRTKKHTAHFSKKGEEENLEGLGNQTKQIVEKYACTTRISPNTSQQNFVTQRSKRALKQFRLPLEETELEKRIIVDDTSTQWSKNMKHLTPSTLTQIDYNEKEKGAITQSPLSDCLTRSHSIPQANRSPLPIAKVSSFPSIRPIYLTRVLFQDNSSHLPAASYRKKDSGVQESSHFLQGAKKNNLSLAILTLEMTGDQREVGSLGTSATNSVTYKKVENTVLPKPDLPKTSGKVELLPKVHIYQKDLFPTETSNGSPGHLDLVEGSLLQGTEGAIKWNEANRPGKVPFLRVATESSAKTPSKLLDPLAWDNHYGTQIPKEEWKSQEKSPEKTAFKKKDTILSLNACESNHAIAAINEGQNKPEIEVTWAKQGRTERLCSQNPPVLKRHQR
T1 sequence (P00451 1668-2351 limits assumed): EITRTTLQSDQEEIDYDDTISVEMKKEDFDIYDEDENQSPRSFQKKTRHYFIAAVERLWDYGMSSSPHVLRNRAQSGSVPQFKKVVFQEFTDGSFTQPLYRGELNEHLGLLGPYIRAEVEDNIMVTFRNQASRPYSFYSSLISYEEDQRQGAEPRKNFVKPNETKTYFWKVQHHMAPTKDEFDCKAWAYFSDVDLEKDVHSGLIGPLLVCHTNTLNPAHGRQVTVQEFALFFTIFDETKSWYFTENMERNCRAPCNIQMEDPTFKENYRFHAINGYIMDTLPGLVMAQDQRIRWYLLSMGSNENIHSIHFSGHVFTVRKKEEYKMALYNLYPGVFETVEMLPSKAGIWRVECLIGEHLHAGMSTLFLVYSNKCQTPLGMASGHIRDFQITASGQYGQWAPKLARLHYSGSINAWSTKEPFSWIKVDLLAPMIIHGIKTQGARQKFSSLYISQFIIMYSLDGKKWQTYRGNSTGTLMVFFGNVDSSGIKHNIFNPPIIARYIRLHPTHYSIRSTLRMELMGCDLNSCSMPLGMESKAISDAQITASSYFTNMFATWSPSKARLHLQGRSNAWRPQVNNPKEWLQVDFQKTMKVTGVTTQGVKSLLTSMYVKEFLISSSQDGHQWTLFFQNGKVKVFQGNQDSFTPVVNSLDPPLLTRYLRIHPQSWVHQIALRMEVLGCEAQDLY
T2 sequence (P00740 47-461): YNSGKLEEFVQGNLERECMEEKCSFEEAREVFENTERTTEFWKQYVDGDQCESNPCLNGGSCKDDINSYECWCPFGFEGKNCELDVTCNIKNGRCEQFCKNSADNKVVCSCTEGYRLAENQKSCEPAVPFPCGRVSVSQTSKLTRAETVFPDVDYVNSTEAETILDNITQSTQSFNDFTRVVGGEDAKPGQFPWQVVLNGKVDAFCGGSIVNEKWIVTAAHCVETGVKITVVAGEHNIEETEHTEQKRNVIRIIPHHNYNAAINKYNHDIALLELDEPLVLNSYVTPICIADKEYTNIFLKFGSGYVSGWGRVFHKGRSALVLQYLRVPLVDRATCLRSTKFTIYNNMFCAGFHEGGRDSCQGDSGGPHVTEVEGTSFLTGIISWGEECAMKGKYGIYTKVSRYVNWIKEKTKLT

O=CCCl [CAA, Chloroacetaldehyde]
PPV inactivation rate ([1]; 2 mM CAA): ~0.6 log10/hour
porcine parvovirus inactivated [1, 10]: 3.2 -4 log10
porcine parvovirus inactivated ([1]; 4-hour treatment with 5 mM CAA): ≥ 3.6 logs
Average PPV Reduction ([1]; CAA 0.5 mM (total), buffer, pH 5.40, 37° C.): 0.16 Log10/hour
Average PPV Reduction ([1]; CAA 1 mM (total), buffer, pH 5.40, 37° C.): 0.26 Log10/hour
Average PPV Reduction ([1]; CAA 2 mM (total), 2.5% IgG, pH 5.36, 37° C.): 0.61 Log10/hour
Average PPV Reduction ([1]; CAA 2 mM (total), buffer, pH 5.50, 37° C.): 0.48 Log10/hour
Average PPV Reduction ([1]; CAA 5 mM (total), 2.5% IgG, pH 5.50, 37° C.): ≧0.79 Log10/hour
concentration effective at inactivating pathogens (as low as) ([1]; aqueous solutions of chloroacetaldehyde): about 1.0 mM
Pseudorabies Virus Av. rate ([2]; 2 mM): 0.66 log10/hour
Pseudorabies Virus Reduction Factor ([2]; 2 mM): 2.10 log10/4 hours
pseudorabies virus inactivated [2, 10]: ≥ 3.2 log10
Pseudorabies Virus Av. rate ([2]; 5 mM): ≧0.79 log10/hour
Pseudorabies Virus Reduction Factor ([2]; 5 mM): ≧3.15 log10/4 hours
FVIII u/mL after 37° C. incubation, 0 hour ([3]; CAA 4.2 mM): 121 u/mL and 95 u/mL
FVIII u/mL after 37° C. incubation, 0 hour ([3]; CAA 8.5 mM): 88 u/mL and 109 u/mL
FVIII u/mL after 37° C. incubation, 3 hours ([3]; CAA 8.5 mM): 105 u/mL and 117 u/mL
FVIII u/mL after 37° C. incubation, 0 hour ([3]; CAA 12.7 mM): 89 u/mL and 106 u/mL
FVIII u/mL after 37° C. incubation, 3 hours ([3]; CAA 12.7 mM): 91 u/mL and 108 u/mL
PPV Average rate [4, 11]: ≧0.61 Log10/hour
PPV Reduction Factor [4, 11]: ≧2.44 Log10/4 hours
PPV Average rate [4, 12]: ≧0.57 Log10/hour
PPV Reduction Factor [4, 12]: ≧2.27 Log10/4 hours
PPV Average rate [4, 13]: ≧0.52 Log10/hour
PPV Reduction Factor [4, 13]: ≧2.09 Log10/4 hours
PPV Average rate [4, 14]: ≧0.43 Log10/hour
PPV Reduction Factor [4, 14]: ≧1.75 Log10/4 hours
PPV reduction factors (limited by assay sensitivity) [4, 15]: ≥ 2 log10/4 hours
PPV reduction rate (limited by assay sensitivity) [4, 15]: ≥ 0.5 log10/hour
% of initial clotting activity remaining after 37° C. incubation ([5]; CFIX-M + 1 mM CAA, 0 hour): 95.2%
% of initial clotting activity remaining after 37° C. incubation ([5]; CFIX-M + 1 mM CAA, 4 hour): 93.9%
% of initial clotting activity remaining after 37° C. incubation ([5]; CFIX-M + 1 mM CAA, 20 hour): 100.3%
% of initial clotting activity remaining after 37° C. incubation ([5]; CFIX-M + 5 mM CAA, 0 hour): 97.7%
% of initial clotting activity remaining after 37° C. incubation ([5]; CFIX-M + 5 mM CAA, 4 hour): 100.6%
% of initial clotting activity remaining after 37° C. incubation ([5]; CFIX-M + 5 mM CAA, 20 hour): 89.1%

O=CCI [IAA, Iodoacetaldehyde]
potency relative to CAA (PPV inactivation) ([6]; 180 μM IAA v. 2 mM CAA at the same rate): over 10 times
PPV Reduction Factor ([6]; IAA 36 μM (hydrated form), 5% IgG, pH 4.64, 37° C.): ≦0.7 Log10/4 hours
PPV Reduction Factor ([6]; IAA 36 μM (hydrated form), buffer, pH 4.96, 37° C.): 0.8 Log10/4 hours
PPV Reduction Factor ([6]; IAA 45 μM (hydrated form), 5% IgG, pH 4.64, 37° C.): 0.9 Log10/4 hours
PPV Reduction Factor ([6]; IAA 45 μM (hydrated form), buffer, pH 4.96, 37° C.): 1.1 Log10/4 hours
PPV Reduction Factor ([6]; IAA 60 μM (hydrated form), 5% IgG, pH 4.64, 37° C.): 1.2 Log10/4 hours
PPV Reduction Factor ([6]; IAA 60 μM (hydrated form), buffer, pH 4.96, 37° C.): 1.1 Log10/4 hours
PPV Reduction Factor ([6]; IAA 90 μM (hydrated form), 5% IgG, pH 4.62, 37° C.): 1.4 Log10/4 hours
PPV Reduction Factor ([6]; IAA 90 μM (hydrated form), buffer, pH 4.95, 37° C.): 1.7 Log10/4 hours
PPV inactivation rate ([6]; IAA 180 μM): ~0.6 log10/hour
PPV Reduction Factor ([6]; IAA 180 μM (hydrated form), 5% IgG, pH 4.61, 37° C.): 2.5 Log10/4 hours
PPV Reduction Factor ([6]; IAA 180 μM (hydrated form), buffer, pH 4.93, 37° C.): 2.7 Log10/4 hours
PPV Reduction Factor ([6]; IAA 600 μM (hydrated form), 5% IgG, pH 4.56, 37° C.): ≧4.7 Log10/4 hours
PPV Reduction Factor ([6]; IAA 600 μM (hydrated form), buffer, pH 4.84, 37° C.): ≧4.7 Log10/4 hours
concentration effective at inactivating pathogens, e.g., porcine parvovirus (as low as) ([6]; IAA hydrate): 50 µM
Effect on Iodoacetaldehyde, Change ([7]; 80° C. (20 hours)): Degraded
Effect on Iodoacetaldehyde, Change ([7]; Sodium thiosulfate, 2-20 mM): Degraded
Effect on Iodoacetaldehyde, Change ([7]; pH 12 (0.5 hour)): Degraded
aldehyde form, share of the sample [8]: approximately 10%
hydrated form, share of the sample [8]: approximately 90%

II [molecular iodine]
effect on Factor IX [9]: completely inactivate
